pIC50: −log10 of the molar value. Entries after “also recorded” stand apart in the source; their conditions may differ. Where two headings read alike, the source gives them in different places.
How the values were obtained:
[1] = system: paxillin (pY118) in OMM 2.5 cells; assay: Western blot of pY118 and total paxillin in HGF-treated metastatic UM cells; type: cell-based, human; conditions: HGF-treated OMM 2.5 cells, 4 hrs
Procedure: REC, Mel 270, OMM 2.5 under Hepatocyte Growth Factor (HGF) or Vascular Endothelial Growth Factor (VEGF) stimulation conditions: Cell lysates were collected in RIPA lysis buffer (50 mM Tris-HCl, pH 7.4, 150 mM NaCl, 2 mM EDTA, 1% Nonidet P-40, 0.1% SDS) with protease 1× inhibitor cocktail (Roche; Indianapolis, Ind.). Lysates were kept on ice and centrifuged at 10,000×g×10 minutes and total protein was measured using the BCA assay (Pierce, Rockford, Ill.). Protein samples were mixed with 4×LDS loading buffer with 2.5% 2-mercaptoethanol (Sigma-Aldrich), heated to 70° C. for 10 minutes, and loaded on NuPAGE 4-12% Bis-Tris gel (Invitrogen, Carlsbad, Calif.). […] Dual-channel infrared scan and quantitation of immunoblots were conducted using the ODYSSEY Sa infrared imaging system with Image Studio (Ver. 3.1.4) (LI-COR).
Immune studies of the α4β1 integrins (VCAM-1 and VLA-4) show high affinity α4 integrins may initiate signaling cascades through paxillin that regulate leukocytes migration to inflammation sites. […] The levels of total paxillin and pY118 were measured after activation of metastatic-UM (OMM 2.5) cells with Hepatocyte Growth Factor (HGF) to address in vitro if disruption of α4-downstream signaling through paxillin can affect α4-downstream signaling. […]

[2] = system: retinal endothelial cells (REC); assay: REC scratch-wound assay, VEGF-induced migration; type: cell-based, human; conditions: for pIC50: Homo sapiens, Endothelial cell
Procedure: RECs were wounded and treated with VEGF (20 ng/mL) and either compound (II-4) (1 μM) or vehicle. Compound (II-4) reduced migration by ˜10-fold when measured 24 hrs post-scratch. (*P<0.001; n=6).
Two methods of evaluating VEGF-induced REC migration were used to assess the impact of compound (II-4) on paxillin-mediated migration: the scratch assay and the transwell (Boyden chamber) cell migration assay. To test if paxillin inhibition would reduce VEGF-induced REC migration, RECs were wounded and treated with VEGF ([…]) +/− compound (II-4) ([…]). Wound closure was monitored by phase microscopy over 24 hours and area of wound closure was calculated using the sophisticated image analysis tools in Adobe Photoshop. Cells were then fixed and nuclei were stained using DAPI to show extent of cell migration.
FIG. 2: REC scratch-wound assay. RECs were wounded and treated with VEGF (20 ng/mL) and either compound (II-4) (1 μM) or vehicle. Compound (II-4) reduced migration by ˜10-fold when measured 24 hrs post-scratch. (*P<0.001; n=6)
FIG. 17: REC migration. A) Increasing concentrations of compound (II-4) inhibit VEGF-induced migration in a scratch wound assay; [Serum Free-control, VEGF (100 ng/mL), VEGF+100 nM, 500 nM, 10 μM, 100 μM] (IC50≈180 ηM; n=6/group). Cells were stained with DAPI for representative images. B) RECs seeded onto transwell membranes were stimulated with VEGF+ vehicle or compound (II-4) for 24 hrs. Cells were removed from the topside of membrane and migrated cells were stained with DAPI [Serum-Free (SF), VEGF, +100, +500 nM, respectively]. Cell number was measured using fluorescence microscopy. All data are mean±SD (*, # P<0.001)

paxillin = assay: Murine OIR model, Western blot of retinal homogenates; type: in vivo, mouse; conditions: daily ocular administration 0.5 mg/kg or 5 mg/kg, P17
From the text: Topical delivery of compound (II-4) using an ocular ME was chosen for several reasons. First, intravitreal injection is technically challenging and, unlike intraocular delivery of proteins, is unnecessary for delivery of small molecules. […] The murine OIR model was used to examine the effect of compound (II-4) on the natural history of VEGF-induced proliferative retinopathy. Briefly, pups were exposed to 75% oxygen at post-natal day 7 (P7) for 5 days and then returned to normal oxygen at P12. Mice received daily ocular administration of either compound (II-4) (0.5 mg/kg or 5 mg/kg) or vehicle (ME) from P12 to P17. Eyes were enucleated at P17 and retinal whole-mounts stained for endothelial cells followed by quantification of avascular area and vascular tuft formation.
FIG. 22: Oxygen-Induced Retinopathy (OIR). (A:) P17 retinal whole-mounts were stained for endothelial cells. […] Data represent mean (±SD). N=8-14/group. […] (C): Quantitation of panel A neovascular area. (D): Quantitation of panel A avascular area. (E): Quantitation of panel B total paxillin.

[3] = system: retinal endothelial cells (REC); assay: REC attachment assay; type: cell-based, human; conditions: increasing concentrations (100 nM to 1 μM), six hours
From the text: Adhesive interactions with extracellular matrix proteins rely on focal adhesion proteins engaging with integrins to strengthen and maintain cell contacts. In the transwell migration assay system, initial cell-attachment to the porous membrane was relied upon in order to obtain a measure of cells that have migrated through to the underside of the well. Since compound (II-4) was in direct contact with cells prior to being seeded onto the transwell membranes, the potential of compound (II-4) to impede the attachment of RECs to the membranes was investigated. […] However, investigation of integrin-mediated signaling may be of interest to further evaluate and characterize compound (II-4)'s potential role in disrupting cross-talk between growth-factor and integrin-mediated signaling during pathological retinal angiogenesis.
FIG. 19: REC attachment assay. Increasing concentrations of compound (II-4) with suspended RECs were seeded to 96-wells to investigate inhibition of REC-adherence to attachment-factor surfaces. […] (P>0.05; n=8).

- pIC50 ([2]; VEGF (100 ng/mL), n=6/group, read-out: IC50, inhibition of VEGF-induced migration in scratch wound assay): ~6.74
- pIC50 ([2]; wound closure at 24 hours, VEGF (100 μg/mL), compound 100 μM to 10 μM as printed, read-out: IC50, inhibition of VEGF-induced REC migration (wound closure)): 6.74
SMILES: COc1cc(C2OC(=O)Nc3c2ccc2ccccc32)cc(OC)c1OC (stereo not drawn) [compound II-4]
- ratio of pY118 paxillin to total paxillin (pPax:Pax) [1]: dramatically decreased
- reduction of migration in REC scratch-wound assay ([2]; VEGF (20 ng/mL), compound (II-4) 1 μM vs vehicle, 24 hrs post-scratch): ~10 fold
- total paxillin in retinal homogenates (paxillin): dose-dependent reduction; also recorded: reduced total paxillin protein
- attachment of RECs to attachment-factor coated wells [3]: did not impede the attachment

— US9834525B2, “Inhibitors of paxillin function and related compositions and methods” (UNIVERSITY OF TENNESSEE RESEARCH FOUNDATION, priority 2015, dated 2017)
